# Data published in patent US7115622B2, “Amido ether substituted imidazoquinolines” (3M Innovative Properties Company, priority 2000, dated 2006).
# How the values were obtained:
# [1] = system: tumor necrosis factor (α); assay: Cytokine Induction in Human Cells: tumor necrosis factor induction in PBMC; format: cell-based; design: key to Lowest Effective Concentration (μM) Tumor Necrosis Factor: *: no induction was seen at any of the tested concentrations; generally the highest concentration tested was 10 or 30 μM; conditions: 18 to 24 hours incubation, tested 30–0.014 μM, ELISA or IGEN assay; for minimal effective concentration: read-out: Lowest Effective Concentration (μM) Tumor Necrosis Factor
# Text: (§1) An in vitro human blood cell system is used to assess cytokine induction. Activity is based on the measurement of interferon and tumor necrosis factor (α) (IFN and TNF, respectively) secreted into culture media as described by Testerman et. al. In “Cytokine Induction by the Immunomodulators Imiquimod and S-27609”, Journal of Leukocyte Biology, 58, 365–372 (September, 1995).
# (§2) Whole blood from healthy human donors is collected by venipuncture into EDTA vacutainer tubes. Peripheral blood mononuclear cells (PBMC) are separated from whole blood by density gradient centrifugation using Histopaque®-1077. Blood is diluted 1:1 with Dulbecco's Phosphate Buffered Saline (DPBS) or Hank's Balanced Salts Solution (HBSS). The PBMC layer is collected and washed twice with DPBS or HBSS and resuspended at 4×10^6 cells/mL in RPMI complete. The PBMC suspension is added to 48 well flat bottom sterile tissue culture plates (Costar, Cambridge, Mass. or Becton Dickinson Labware, Lincoln Park, N.J.) containing an equal volume of RPMI complete media containing test compound.
# (§3) The compounds are solubilized in dimethyl sulfoxide (DMSO). The DMSO concentration should not exceed a final concentration of 1% for addition to the culture wells. The compounds are generally tested at concentrations ranging from 30–0.014 μM.
# (§4) The solution of test compound is added at 60 μM to the first well containing RPMI complete and serial 3 fold dilutions are made in the wells. The PBMC suspension is then added to the wells in an equal volume, bringing the test compound concentrations to the desired range (30–0.014 μM). The final concentration of PBMC suspension is 2×10^6 cells/mL. The plates are covered with sterile plastic lids, mixed gently and then incubated for 18 to 24 hours at 37° C. in a 5% carbon dioxide atmosphere.
# (§5) Following incubation the plates are centrifuged for 10 minutes at 1000 rpm (˜200×g) at 4° C. The cell-free culture supernatant is removed with a sterile polypropylene pipet and transferred to sterile polypropylene tubes. Samples are maintained at −30 to −70° C. until analysis. The samples are analyzed for interferon (α) by ELISA and for tumor necrosis factor (α) by ELISA or IGEN Assay
# Tumor necrosis factor (α) (TNF) concentration is determined using ELISA kits available from Biosource International, Camarillo, Calif. Alternately, the TNF concentration can be determined by Origen® M-Series Immunoassay and read on an IGEN M-8 analyzer from IGEN International, Gaithersburg, Md. The immunoassay uses a human TNF capture and detection antibody pair from Biosource International, Camarillo, Calif. Results are expressed in pg/mL.
# (§6) The table below lists the lowest concentration found to induce interferon and the lowest concentration found to induce tumor necrosis factor for each compound.
# [2] = system: interferon (α); assay: Cytokine Induction in Human Cells: interferon induction in PBMC; format: cell-based; design: key to Lowest Effective Concentration (μM) Interferon: *: no induction was seen at any of the tested concentrations; generally the highest concentration tested was 10 or 30 μM; conditions: 18 to 24 hours incubation, tested 30–0.014 μM, ELISA; for minimal effective concentration: read-out: Lowest Effective Concentration (μM) Interferon
# Text: as §1, §2, §3, §4, §5
# Interferon (α) and Tumor Necrosis Factor (α) Analysis by ELISA Interferon (α) concentration is determined by ELISA using a Human Multi-Species kit from PBL Biomedical Laboratories, New Brunswick, N.J. Results are expressed in pg/mL.
# as §6
SMILES,minimal effective concentration [1],minimal effective concentration [2],Lowest Effective Concentration (μM) Tumor Necrosis Factor [1],Lowest Effective Concentration (μM) Interferon [2]
CCC(COCCC1CCN(C(=O)c2ccccc2)CC1)n1cnc2c(N)nc3ccccc3c21 (stereo not shown) [Example 38],10 µM,1 µM,–,–
Nc1nc2ccccc2c2c1ncn2CCOCCNC(=O)Cc1cccs1 [Example 56],10 µM,1 µM,–,–
"CCCCN(C(=O)CCCCOCCn1cnc2c(N)nc3ccccc3c21)c1ccccc1 [Example 13, 5-[2-(4-amino-1H-imidazo[4,5-c]quinolin-1-yl)ethoxy]-N-butyl-N-phenylpentanamide]",–,10 µM,*,–
"CN(C(=O)CCCCOCCn1cnc2c(N)nc3ccccc3c21)c1ccccc1 [Example 12, 5-[2-(4-amino-1H-imidazo[4,5-c]quinolin-1-yl)ethoxy]-N-methyl-N-phenylpentanamide]",–,3.33 µM,*,–
CCC(COCCC1CCN(C(=O)c2cccnc2)CC1)n1cnc2c(N)nc3ccccc3c21 (stereo not shown) [Example 46],1 µM,0.1 µM,–,–
CCCCc1nc2c(N)nc3ccccc3c2n1CCOCCNC(=O)c1ccccc1 [Example 18],10 µM,1 µM,–,–
CCCCc1nc2c(N)nc3ccccc3c2n1CCOCCNC(=O)c1ccc(Cl)nc1 [Example 28],10 µM,1 µM,–,–
Nc1nc2ccccc2c2c1ncn2CCOCCNC(=O)c1ccc(Cl)nc1 [Example 61],10 µM,10 µM,–,–
CCC(COCCC1CCN(C(=O)CCc2ccccc2)CC1)n1cnc2c(N)nc3ccccc3c21 (stereo not shown) [Example 43],10 µM,1 µM,–,–
CCC(COCCC1CCN(C(=O)c2ccc3ccccc3c2)CC1)n1cnc2c(N)nc3ccccc3c21 (stereo not shown) [Example 49],10 µM,1 µM,–,–
CCCCc1nc2c(N)nc3ccccc3c2n1CCOCCNC(=O)c1cccc(C(F)(F)F)c1 [Example 32],10 µM,–,–,*
Nc1nc2ccccc2c2c1ncn2CCOCCNC(=O)Cc1ccccc1 [Example 55],10 µM,1 µM,–,–
CCCCc1nc2c(N)nc3ccccc3c2n1CCOCCNC(=O)Cc1ccccc1 [Example 20],10 µM,0.1 µM,–,–
CCC(COCCC1CCN(C(=O)c2cccc(C#N)c2)CC1)n1cnc2c(N)nc3ccccc3c21 (stereo not shown) [Example 42],1 µM,1 µM,–,–
CCCCc1nc2c(N)nc3ccccc3c2n1CCOCCNC(=O)C1CCCCC1 [Example 19],10 µM,1 µM,–,–
Nc1nc2ccccc2c2c1ncn2CCOCCNC(=O)c1ccc(OC(F)(F)F)cc1 [Example 66],–,–,*,*
Nc1nc2ccccc2c2c1ncn2CCOCCNC(=O)c1ccc(C(F)(F)F)cc1 [Example 65],–,–,*,*
CCCCc1nc2c(N)nc3ccccc3c2n1CCOCCNC(=O)C1CC1 [Example 15],1 µM,0.1 µM,–,–
CCC(COCCC1CCN(C(=O)c2cccc(C(F)(F)F)c2)CC1)n1cnc2c(N)nc3ccccc3c21 (stereo not shown) [Example 50],1 µM,1 µM,–,–
CCCCC(=O)NCCOCCn1cnc2c(N)nc3ccccc3c21 [Example 52],10 µM,10 µM,–,–
CCCCc1nc2c(N)nc3ccccc3c2n1CCOCCNC(=O)CCc1ccccc1 [Example 25],10 µM,1 µM,–,–
Nc1nc2ccccc2c2c1ncn2CCOCCNC(=O)COCc1ccccc1 [Example 62],10 µM,1 µM,–,–

SMILES,minimal effective concentration [1],minimal effective concentration [2],Lowest Effective Concentration (μM) Tumor Necrosis Factor [1],Lowest Effective Concentration (μM) Interferon [2]
Nc1nc2ccccc2c2c1ncn2CCOCCNC(=O)C1CCCCC1 [Example 54],10 µM,10 µM,–,–
N#Cc1ccc(C(=O)NCCOCCn2cnc3c(N)nc4ccccc4c32)cc1 [Example 57],–,10 µM,*,–
CCC(COCCC1CCN(C(=O)c2ccc(F)cc2)CC1)n1cnc2c(N)nc3ccccc3c21 (stereo not shown) [Example 40],1 µM,1 µM,–,–
Nc1nc2ccccc2c2c1ncn2CCOCCNC(=O)c1ccc2ccccc2c1 [Example 63],10 µM,–,–,*
CCCCc1nc2c(N)nc3ccccc3c2n1CCOCCNC(=O)COCc1ccccc1 [Example 30],10 µM,1 µM,–,–
CCCCc1nc2c(N)nc3ccccc3c2n1CCOCCNC(=O)c1ccc(C(F)(F)F)cc1 [Example 33],10 µM,–,–,*
CCC(COCCC1CCN(C(=O)Cc2cccs2)CC1)n1cnc2c(N)nc3ccccc3c21 (stereo not shown) [Example 41],1 µM,0.1 µM,–,–
CCCCc1nc2c(N)nc3ccccc3c2n1CCOCCNC(=O)[C@@H]1C[C@H]1c1ccccc1 [Example 29],10 µM,1 µM,–,–
Nc1nc2ccccc2c2c1ncn2CCOCCNC(=O)c1ccccc1 [Example 53],10 µM,10 µM,–,–
CCCCc1nc2c(N)nc3ccccc3c2n1CCOCCNC(=O)c1cccc2ccccc12 [Example 31],10 µM,–,–,*
CCC(COCCC1CCN(C(=O)[C@@H]2C[C@H]2c2ccccc2)CC1)n1cnc2c(N)nc3ccccc3c21 (stereo partly shown) [Example 47],–,1 µM,*,–
CCCCc1nc2c(N)nc3ccccc3c2n1CCOCCNC(=O)C1CCCC1 [Example 17],1 µM,1 µM,–,–
CCCCc1nc2c(N)nc3ccccc3c2n1CCOCCNC(=O)c1ccc(C#N)cc1 [Example 23],10 µM,1 µM,–,–
CCCCc1nc2c(N)nc3ccccc3c2n1CCOCCNC(=O)c1cccc(C#N)c1 [Example 24],10 µM,1 µM,–,–
COc1ccc(C(=O)NCCOCCn2cnc3c(N)nc4ccccc4c32)cc1 [Example 60],10 µM,10 µM,–,–
CCCCc1nc2c(N)nc3ccccc3c2n1CCOCCNC(=O)Cc1cccs1 [Example 22],10 µM,0.1 µM,–,–
CCC(COCCC1CCN(C(=O)c2ccc(Cl)nc2)CC1)n1cnc2c(N)nc3ccccc3c21 (stereo not shown) [Example 45],1 µM,0.1 µM,–,–
CCC(COCCC1CCN(C(=O)COCc2ccccc2)CC1)n1cnc2c(N)nc3ccccc3c21 (stereo not shown) [Example 48],10 µM,0.1 µM,–,–
Nc1nc2ccccc2c2c1ncn2CCOCCNC(=O)c1cccc(C(F)(F)F)c1 [Example 64],–,10 µM,*,–
CCC(COCCC1CCN(C(=O)c2ccc(OC)cc2)CC1)n1cnc2c(N)nc3ccccc3c21 (stereo not shown) [Example 44],1 µM,1 µM,–,–
Nc1nc2ccccc2c2c1ncn2CCOCCNC(=O)CCc1ccccc1 [Example 58],10 µM,10 µM,–,–
CCC(COCCC1CCN(C(=O)c2ccc(OC(F)(F)F)cc2)CC1)n1cnc2c(N)nc3ccccc3c21 (stereo not shown) [Example 51],10 µM,10 µM,–,–
